This is an account of results in PubChem BioAssay AID1259407 (Chemical Carcinogenesis Research Information System (CCRIS), 2018).

For the data set, the system named is CCRIS mutagenicity, Ames/micronucleus/aberration tests. In words: CCRIS mutagenicity studies.
The mark [1] stands for this setting: Test System: AMES SALMONELLA TYPHIMURIUM, Strain/Indicator: TA98, Metabolic Activation: NONE, Method: PREINCUBATION
Where [2] appears, read: Test System: AMES SALMONELLA TYPHIMURIUM, Strain/Indicator: TA100, Metabolic Activation: NONE, Method: PREINCUBATION
Setting [3] is: Test System: AMES SALMONELLA TYPHIMURIUM, Strain/Indicator: TA102, Metabolic Activation: NONE, Method: PREINCUBATION
Where [4] appears, read: Test System: AMES SALMONELLA TYPHIMURIUM, Strain/Indicator: TA104, Metabolic Activation: NONE, Method: PREINCUBATION
[5] abbreviates: Test System: AMES SALMONELLA TYPHIMURIUM, Strain/Indicator: TA1535, Metabolic Activation: NONE, Method: PREINCUBATION
Where [6] appears, read: Test System: AMES SALMONELLA TYPHIMURIUM, Strain/Indicator: TA1537, Metabolic Activation: NONE, Method: PREINCUBATION
Where [7] appears, read: Test System: AMES SALMONELLA TYPHIMURIUM, Strain/Indicator: TA1538, Metabolic Activation: NONE, Method: PREINCUBATION

Calls of active or inactive are those of the source. How the calls were made is not given here.

With `CC(C)([CH2][Sn]([CH2]C(C)(C)c1ccccc1)([CH2]C(C)(C)c1ccccc1)[O][Sn]([CH2]C(C)(C)c1ccccc1)([CH2]C(C)(C)c1ccccc1)[CH2]C(C)(C)c1ccccc1)c1ccccc1`, the mutagenic call was “inactive; negative” (End Point: In vitro chromosomal aberrations, Test System: Human lymphocytes, Metabolic Activation: None); “inactive; negative” (End Point: In vitro chromosomal aberrations, Test System: Human lymphocytes, Metabolic Activation: Rat, Liver, S-9, Aroclor 1254); “inactive; negative” (End Point: In vivo micronucleus, Test System: Bone marrow polychromatic erythrocytes, Species: Mouse, Strain/Sex: Crl:CD-1(ICR)BR/Male and female, Route: Oral); “inactive; negative” (End Point: UDS, Test System: Rat primary hepatocytes, Metabolic Activation: None, Method: Autoradiography); “inactive; negative” (Test System: Chinese hamster ovary cells, Strain/Indicator: CHO cells (HPRT)/6-Thioguanine, Metabolic Activation: None, Method: Standard plate); “inactive; negative” (Test System: Chinese hamster ovary cells, Strain/Indicator: CHO cells (HPRT)/6-Thioguanine, Metabolic Activation: Rat, Liver, S-9, Aroclor 1254, Method: Standard plate).
In the case of `O=C1c2ccccc2C(=O)c2c1cc(O)c(CO)c2O`, the mutagenic call under setting [1] is “active; positive”; the mutagenic call (Test System: AMES SALMONELLA TYPHIMURIUM, Strain/Indicator: TA98, Metabolic Activation: RAT, LIVER, S-9, AROCLOR 1254, Method: PREINCUBATION) was “active; positive”; the mutagenic call (Test System: AMES SALMONELLA TYPHIMURIUM, Strain/Indicator: TA98, Metabolic Activation: RAT, LIVER, S-9, PCB, Method: PREINCUBATION) was “active; positive”; the mutagenic call under setting [2] is “active; positive”; the mutagenic call (Test System: AMES SALMONELLA TYPHIMURIUM, Strain/Indicator: TA100, Metabolic Activation: RAT, LIVER, S-9, AROCLOR 1254, Method: PREINCUBATION) was “active; positive”; the mutagenic call (Test System: AMES SALMONELLA TYPHIMURIUM, Strain/Indicator: TA100, Metabolic Activation: RAT, LIVER, S-9, PCB, Method: PREINCUBATION) was “active; positive”. In addition, the mutagenic call under setting [3] was “active; positive”; the mutagenic call (Test System: AMES SALMONELLA TYPHIMURIUM, Strain/Indicator: TA102, Metabolic Activation: RAT, LIVER, S-9, AROCLOR 1254, Method: PREINCUBATION) was “active; positive”; the mutagenic call (Test System: AMES SALMONELLA TYPHIMURIUM, Strain/Indicator: TA102, Metabolic Activation: RAT, LIVER, S-9, Method: PREINCUBATION) is “active; positive”; the mutagenic call under setting [4] is “active; positive”; the mutagenic call (Test System: AMES SALMONELLA TYPHIMURIUM, Strain/Indicator: TA104, Metabolic Activation: RAT, LIVER, S-9, AROCLOR 1254, Method: PREINCUBATION) was “active; positive”; the mutagenic call under setting [5] was “inactive; negative”. For the same compound, the mutagenic call is “inactive; negative” (Test System: AMES SALMONELLA TYPHIMURIUM, Strain/Indicator: TA1535, Metabolic Activation: RAT, LIVER, S-9, AROCLOR 1254, Method: PREINCUBATION); “active; positive” under setting [6]; “active; positive” (Test System: AMES SALMONELLA TYPHIMURIUM, Strain/Indicator: TA1537, Metabolic Activation: RAT, LIVER, S-9, AROCLOR 1254, Method: PREINCUBATION); “active; positive” (Test System: AMES SALMONELLA TYPHIMURIUM, Strain/Indicator: TA1537, Metabolic Activation: RAT, LIVER, S-9, Method: PREINCUBATION); “active; positive” under setting [7]; “active; positive” (Test System: AMES SALMONELLA TYPHIMURIUM, Strain/Indicator: TA1538, Metabolic Activation: RAT, LIVER, S-9, AROCLOR 1254, Method: PREINCUBATION). Also, the mutagenic call was “active; positive” (Test System: CHINESE HAMSTER V-79, Strain/Indicator: V-79/AZAGUANINE, Metabolic Activation: NONE, Method: STANDARD PLATE) and “active; positive” (Test System: UDS RODENT HEPATOCYTES, Strain/Indicator: THY INCORP, Metabolic Activation: NONE).
Take `Nc1ccc(-c2ccc(N)c([N+](=O)[O-])c2)cc1[N+](=O)[O-]`: the mutagenic call reads like this: (Test System: AMES SALMONELLA TYPHIMURIUM, Strain/Indicator: TA98(1,8-DNP6), Metabolic Activation: NONE, Method: STANDARD PLATE) “inactive; negative”; (Test System: AMES SALMONELLA TYPHIMURIUM, Strain/Indicator: TA98(1,8-DNP6), Metabolic Activation: S-9, Method: STANDARD PLATE) “active; positive”; (Test System: AMES SALMONELLA TYPHIMURIUM, Strain/Indicator: TA98, Metabolic Activation: NONE, Method: STANDARD PLATE) “active; positive”; (Test System: AMES SALMONELLA TYPHIMURIUM, Strain/Indicator: TA98, Metabolic Activation: S-9, Method: STANDARD PLATE) “active; positive”; (Test System: AMES SALMONELLA TYPHIMURIUM, Strain/Indicator: TA100, Metabolic Activation: NONE, Method: STANDARD PLATE) “inactive; negative”; (Test System: AMES SALMONELLA TYPHIMURIUM, Strain/Indicator: TA100, Metabolic Activation: S-9, Method: STANDARD PLATE) “active; positive”.
Turning to `NC1=CC(=O)C(=O)c2ccccc21`, the mutagenic call runs as follows: (Test System: AMES SALMONELLA TYPHIMURIUM, Strain/Indicator: TA97, Metabolic Activation: NONE, Method: PREINCUBATION) “active; positive”; (Test System: AMES SALMONELLA TYPHIMURIUM, Strain/Indicator: TA97, Metabolic Activation: RAT, LIVER, S-9, PHENOBARBITAL AND 5,6-BENZOFLAVONE, Method: PREINCUBATION) “active; positive”; under setting [1], “inactive; negative”; (Test System: AMES SALMONELLA TYPHIMURIUM, Strain/Indicator: TA98, Metabolic Activation: RAT, LIVER, S-9, PHENOBARBITAL AND 5,6-BENZOFLAVONE, Method: PREINCUBATION) “active; positive”; under setting [2], “active; positive”; (Test System: AMES SALMONELLA TYPHIMURIUM, Strain/Indicator: TA100, Metabolic Activation: RAT, LIVER, S-9, PHENOBARBITAL AND 5,6-BENZOFLAVONE, Method: PREINCUBATION) “active; positive”. Moreover, the mutagenic call under setting [3] was “inactive; negative”; the mutagenic call (Test System: AMES SALMONELLA TYPHIMURIUM, Strain/Indicator: TA102, Metabolic Activation: RAT, LIVER, S-9, PHENOBARBITAL AND 5,6-BENZOFLAVONE, Method: PREINCUBATION) was “inactive; negative”; the mutagenic call under setting [4] was “active; positive”; the mutagenic call (Test System: AMES SALMONELLA TYPHIMURIUM, Strain/Indicator: TA104, Metabolic Activation: RAT, LIVER, S-9, PHENOBARBITAL AND 5,6-BENZOFLAVONE, Method: PREINCUBATION) is “active; positive”; the mutagenic call under setting [5] is “inactive; negative”; the mutagenic call (Test System: AMES SALMONELLA TYPHIMURIUM, Strain/Indicator: TA1535, Metabolic Activation: RAT, LIVER, S-9, PHENOBARBITAL AND 5,6-BENZOFLAVONE, Method: PREINCUBATION) was “inactive; negative”. Also, the mutagenic call is “inactive; negative” under setting [6]; “active; positive” (Test System: AMES SALMONELLA TYPHIMURIUM, Strain/Indicator: TA1537, Metabolic Activation: RAT, LIVER, S-9, PHENOBARBITAL AND 5,6-BENZOFLAVONE, Method: PREINCUBATION); “inactive; negative” under setting [7]; “inactive; negative” (Test System: AMES SALMONELLA TYPHIMURIUM, Strain/Indicator: TA1538, Metabolic Activation: RAT, LIVER, S-9, PHENOBARBITAL AND 5,6-BENZOFLAVONE, Method: PREINCUBATION); “active; positive” (Test System: AMES SALMONELLA TYPHIMURIUM, Strain/Indicator: TA2637, Metabolic Activation: NONE, Method: PREINCUBATION); “active; positive” (Test System: AMES SALMONELLA TYPHIMURIUM, Strain/Indicator: TA2637, Metabolic Activation: RAT, LIVER, S-9, PHENOBARBITAL AND 5,6-BENZOFLAVONE, Method: PREINCUBATION).
